# Measurements from patent US4276430A, “Analgesic and anti-inflammatory compounds and compositions containing same” (The Procter & Gamble Company, priority 1979, dated 1981).
# Legend:
# [1] = guinea pig ultraviolet light induced erythema test; format: in vivo, guinea pig (Hartley strain albino); details: Cavia porcellus; topical; cumulative blanching grades over a 1-4 hour period after application; vehicle propylene glycol/ethanol; read-out: IC50 (concentration which inhibits UV-induced erythema by 50%)
# Description: The compositions of this invention are evaluated for their anti-inflammation properties using a guinea pig ultraviolet light induced erythema test.
# Hartley strain albino guinea pigs weighing between 400 and 500 grams are clipped on the dorsal area and then depilated using a cream hair remover. 15 minutes after the application of the hair remover, the area is thoroughly washed using warm tap water and then dried with a towel. […] Ten minutes irradiation constitutes a minimal erythema dose. An adhesive tape strip is attached to the center of the guinea pig's back to retain an unirradiated portion of skin. About 1 hour after irradiation time, 3 preparations are applied on each side using a micropipette. The treated areas are about 1×4 cm in size and are aligned vertically from near the center back down the side. The degree of blanching is determined at hourly intervals.
# Compositions as below are formulated and tested.
# *Dihydroxybenzoic acid derivative
# Comparisons of the anti-inflammatory activity of the dihydroxybenzoic acid derivatives are made by calculating their IC50 values.
# [2] = UV-induced pain test in humans: analgesic activity (radiant heat pain stimulus); format: in vivo, human; details: for Recovery of Treated Skin: 1% (w/w) in propylene glycol/ethanol
# Source text: The UV-induced erythema and/or pain model consists of creating a burn with ultraviolet light (UV) and treating the resultant erythemal reaction with topical applications of the new drug formulations. At various time intervals, the degree of erythema and the pain tolerance response to radiant heat are monitored.
# Experiments have been designed to determine the effectiveness of benzyl 2,5-diacetoxybenzoate according to several parameters: treatment times, concentration of drug, repeated applications,duration of response, and vehicles.
# A total of 56 subjects were actually used in the UV-induced erythema and pain tests.
# The compositions of the test formulations employed in these studies were as follows: […]
# (E) 0.01-0.5% (w/w) benzyl 2,5-diacetoxybenzoate in ethanol/propylene glycol/water (50/10/40, w/w/w);
# (G)* 0.025 to 2.5% (w/w) benzyl 2,5-diacetoxybenzoate in a cream vehicle;
# Induction of Erythema: Subjects were irradiated on a 2.5×20 cm area on their backs, using a bank of three 20S Westinghouse fluorescent lamps at a distance of 15 cm. Each subject received 2 to 4 MEDs of light (minimum erythemal dose) for these experiments.
# Treatment with Formulations: The UV-irradiated area was divided into 4 treatment sites. When liquid formulations were tested, up to 40 microliter were topically applied to each treatment site using an Eppendorf micropipet. When cream formulations were tested, no more than 100 microliter were topically applied to each treatment site using a 1 cc tuberculin syringe with no needle; the cream was rubbed into the skin with a gloved finger.
# Each site was treated no more than 4 times, and all treatments occurred within the 24-hour interval following UV-irradiation.
# A randomixed treatment sequence was used.
# 2. Analgesic At suitable time
# Elapsed time, in seconds,
# Activity intervals within
# to respond to a radiant
# treated and untreated skin.
# Skin irradiated with 3-4 MEDs (minimal erythemal doses) of UV-B light (normal sunburn range) becomes hyperalgesic to radiant heat in about four hours.
# The experimental design was regarded as randomized blocks, in which the subject is the "block". The variation between subjects with respect to erythema or analgesic response was accounted for as a source of variation in the Analysis of Variance (ANOVA).
# [3] = suppression of inflammation associated with arthritis (Mycobacterium butyricum, hind paw volume); format: in vivo, rat (Male Sprague-Dawley); details: topical 20 mg/kg/day, five weeks
# Description: This example illustrates the efficacy of the dihydroxybenzoic acid derivatives described herein for suppressing the inflammation associated with arthritis.
# Male Sprague-Dawley rats, weighing between 180-200 grams, are injected subcutaneously in the distal third of the tail with a suspension of 0.8 mg of heat-killed Mycobacterium butyricum in 0.1 ml of mineral oil. This injection introduces arthritis into the rat as evidenced by pedal edema (swelling). Measurement of the alleviation of the inflammation associated with the arthritis is made by determining the volume of the hind paws initially, two weeks later, and each subsequent week thereafter. The paw volume measurements are obtained by immersing each rat's hind paw up to a predetermined mark in a mercury bath connected to a Statham pressure transducer. The increase in pressure within the bath is proportional to the volume of the paw introduced.
# A solution of benzyl 2,5-diacetoxybenzoate is made. The solution comprises a 1:1 mixture of propylene glycol and ethanol and 2% benzyl 2,5-diacetoxybenzoate. In one group, each rat is treated topically with 20 mg/kg/day of the benzyl 2,5-diacetoxybenzoate solution. The changes in paw volume after each treatment are compared to the control rats.
# [4] = UV-induced erythema test in humans: anti-erythemic activity (blanching); format: in vivo, human; details: for blanching response: first 3-4 hours after a single application
# [5] = cited from earlier work
# [6] = administered orally; aspirin-based products; cited from earlier work
# [7] = vehicle propylene glycol/ethanol (50/50, w/w)
smiles,measurement,setting,value
"CC(=O)Oc1ccc(OC(C)=O)c(C(=O)OCc2ccccc2)c1 [Benzyl 2,5-diacetoxybenzoate]",IC50,[1],400 µM
same,Tests with Analgesic Responses,"[2]; 0.01% in Propylene Glycol/Ethanol (50/50, w/w)",1/6
same,dose dependence of the analgesic response,"[2]; 0.01-1.0% in Propylene Glycol/Ethanol (50/50, w/w)",dose-dependent
same,Tests with Analgesic Responses,"[2]; 0.1% in Propylene Glycol/Ethanol (50/50, w/w)",2/6
same,"analgesic activity, three applications compared with 2 or 1",[2]; 0.25%,more effective than 2 or 1 applications
same,"analgesic activity, repeated application compared with single application",[2]; 1%,failed to increase the level of analgesic activity effected by a single application
same,time of maximum analgesic activity,"[2]; 1% (w/w) in propylene glycol/ethanol (50/50, w/w), treatment 2 to 6 hours after UV-irradiation, following treatment",2 to 4 h
same,duration of some analgesic effects,"[2]; 1% (w/w) in propylene glycol/ethanol (50/50, w/w), after treatment(s)",up to 10 hours
same,Tests with Analgesic Responses,"[2]; 1.0% in Propylene Glycol/Ethanol (50/50, w/w)",9/12
same,Recovery of Treated Skin,"[2]; 2-4 hours after treatment, 22 subjects, SE 0.5, normal minus non-treated skin 4.0",2.4 s
same,Recovery of Treated Skin,"[2]; 5-7 hours after treatment, 16 subjects, SE 0.4",1.6 s
same,Recovery of Treated Skin,"[2]; 8-10 hours after treatment, 6 subjects, SE 0.7",1.4 s
same,"delivery of an efficacious dose into the skin, compared with propylene glycol/ethanol","[2]; Ethanol/water (80/20), ethanol/propylene glycol/water (50/10/40), and a cream",somewhat less effective than propylene glycol/ethanol
same,topical analgesic activity,"[2]; conclusion, rather severe and acute pain",does have topical analgesic activity for rather severe and acute pain
same,return to normal pain tolerance,"[2]; in 8 out of the 12 tests, at least one concentration at one time point",≥ 80%
same,analgesic action in non-irradiated skin,[2]; non-irradiated skin,No evidence of analgesic action was found
same,analgesic response by vehicle,"[2]; propylene glycol/ethanol (50/50, w/w) vehicle, compared with 4 vehicle systems",strongest analgesic activity
same,analgesic activity,[2]; skin treated 2 to 6 hours following UV-irradiation,Analgesic activity was demonstrated
same,tests in which at least one concentration at one time point effected at least an 80% return to normal pain tolerance,[2]; [7],8 out of the 12
same,tests with statistically significant analgesia,[2]; [7],9 out of 12
same,reduction in pedal edema compared to non-treated control group,[3]; 2% solution in 1:1 propylene glycol and ethanol,significant improvement compared to the non-treated control group
same,reduction in pedal edema compared with aspirin 200 mg/kg/day oral,[3],comparable
same,blanching response,[4]; 0.01%,distinctly weaker
same,blanching response,[4]; 0.03-2.5%,very similar responses
same,"blanching response, multiple application compared with single application","[4]; 1 to 2.5%, 1 to 4 times within 24 hours",did not produce an effect greater than obtained with a single application
same,half-life of the response (time for the maximum response to diminish 50%),[4]; after drug treatment,about 9 hours
same,time of maximum blanching response,[4]; after drug treatment,2 to 3 h
same,effect of treatment time on blanching response,[4]; application from a few minutes to 24 hours following UV-irradiation,"the earlier a given treatment was made after UV-irradiation, the greater the blanching response"
same,"vehicle effectiveness, peak blanching response: rank 1 (decreasing order)",[4]; at a given concentration,"propylene glycol/ethanol (50/50, w/w)"
same,"vehicle effectiveness, peak blanching response: rank 2 (decreasing order)",[4]; at a given concentration,"ethanol/propylene glycol/water (50/10/40, w/w/w)=cream"
same,"vehicle effectiveness, peak blanching response: rank 3 (decreasing order)",[4]; at a given concentration,"ethanol/water (80/20, w/w)"
same,anti-erythemic activity,[4]; conclusion,has anti-erythemic activity
same,duration of some degree of blanching,"[4]; higher concentrations, after treatment, dose-related",5 to 11 h
same,"blanching response, repeated application","[4]; low concentrations, e.g., 0.03%, 1 to 4 times within 24 hours",high blanching response
same,antierythemic activity by vehicle,"[4]; propylene glycol/ethanol (50/50, w/w) vehicle",highest antierythemic activity
"CCCCC(CC)COC(=O)c1cc(OC(C)=O)ccc1OC(C)=O (stereo not shown) [C2 H3 (C2 H5)C4 H9, 2'-ethylhexyl 2,5-diacetoxybenzoate]",IC50,[1],5800 µM
CCOC(=O)c1cc(OC(C)=O)ccc1OC(C)=O [C2 H5],IC50,[1],1800 µM
"CCCOC(=O)c1cc(OC(C)=O)ccc1OC(C)=O [C3 H7, Propyl 2,5-diacetoxybenzoate]",IC50,[1],1100 µM
"CCCCOC(=O)c1cc(OC(C)=O)ccc1OC(C)=O [C4 H9, n-Butyl 2,5-diacetoxybenzoate]",IC50,[1],1200 µM
"CCCCCCOC(=O)c1cc(OC(C)=O)ccc1OC(C)=O [C6 H13, Hexyl 2,5-diacetoxybenzoate]",IC50,[1],340 µM
CCCCCCCCOC(=O)c1cc(OC(C)=O)ccc1OC(C)=O [C8 H17],IC50,[1],340 µM
"CCCCCCCCCCOC(=O)c1cc(OC(C)=O)ccc1OC(C)=O [C10 H21, Decyl 2,5-diacetoxybenzoate]",IC50,[1],650 µM
"CCCCCCCCCCCCOC(=O)c1cc(OC(C)=O)ccc1OC(C)=O [C12 H25, Dodecyl 2,5-diacetoxybenzoate]",IC50,[1],1200 µM
COC(=O)c1cc(OC(C)=O)ccc1OC(C)=O [CH3],IC50,[1],2300 µM
CC(=O)Oc1ccc(OC(C)=O)c(C(=O)OC(C)c2ccccc2)c1 (stereo not shown) [CH(C6 H5)CH3],IC50,[1],1200 µM
CC(=O)Oc1ccccc1C(=O)O [aspirin],skin irritation on repeated topical application,[5]; repeated topical application of a high level,primary irritation and peeling of the superificial layers (the stratum corneum) of the skin
same,concentration needed for topical analgesic effect,[5]; topical,a relatively high concentration of aspirin must be topically applied before its effect as a topical analgesic is noted
same,effect on inflammation in humans when applied topically,[5]; topical,can delay and decrease inflammation in humans when applied topically
same,"gastric irritation and frank stomach bleeding, patients affected",[6],up to 70%
